Source: PMC9946977, “Identification of linderalactone as a natural inhibitor of SHP2 to ameliorate CCl4-induced liver fibrosis” (Frontiers in Pharmacology, 2023)

Target: T1, SHP2-PTP K366A/Q510A double mutant (Homo sapiens, UniProt Q06124, K366A/Q510A)
T1 construct: Human SHP2 PTP domain (A237–I529) expression constructs; His-tag; made in house; host or cells: E. coli BL21 (DE3)
T1 sequence (Q06124 237-529 K366A/Q510A): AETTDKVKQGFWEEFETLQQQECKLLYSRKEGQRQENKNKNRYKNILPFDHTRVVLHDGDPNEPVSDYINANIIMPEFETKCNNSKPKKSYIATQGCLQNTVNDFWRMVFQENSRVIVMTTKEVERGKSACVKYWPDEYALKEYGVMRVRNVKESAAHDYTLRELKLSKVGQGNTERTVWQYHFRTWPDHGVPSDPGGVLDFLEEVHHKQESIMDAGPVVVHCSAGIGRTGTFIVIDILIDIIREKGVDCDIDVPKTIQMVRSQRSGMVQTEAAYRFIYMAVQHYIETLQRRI
Test: BLI assay, SHP2-PTP K366A/Q510A double mutant
Assay type: binding
Description: Human SHP2 PTP domain (A237–I529) expression constructs were engineered by cloning PTPN11 (NP_002825.3) into the pET30 plasmid with a His-tag to support further protein purification. The K366A/Q510A double mutation was introduced into the wild-type template using a site-directed mutagenesis kit (E0554S; New England Biolabs). The expression constructs were sequenced and transformed into BL21 (DE3)-competent cells. E. coli cells were grown at 37°C in an LB culture medium in the presence of […] kanamycin until the OD600 reached 1.0. The medium was then cooled to 18°C and 1 mM isopropyl ß-D-1-thiogalactopyranoside (IPTG) was added to induce protein expression overnight.
Cell pellets were collected and suspended in a buffer of 50 mM Tris-HCl (Ph = 8.5), 150 mM NaCl supplemented with 10% glycerol, and lysed by homogeniser (JN-BIO, China). […]
The BLI assay was performed using a FortéBio Octet 96 system. […] After equilibrium, the kinetics of the LIN and SHP2-PTP association were analysed by soaking the SSA sensors in a compound solution with various LIN concentrations for 300 s (6.25, 12.5, 25, 50, 100, and 200 μM), followed by 300 s of dissociation in the same HEPES buffer. The equilibrium constant (KD) values were assessed using the FortéBio data analysis software by fitting the kinetic data using a 1:1 binding model.

BLI response value (200 μM LIN): lower than 0.2
effect of K366A/Q510A mutation on binding affinity between LIN and SHP2-PTP (BLI): significantly eliminated
Compound: C/C1=C\CCC2=C[C@@H](OC2=O)c2c(C)coc2C1 [LIN, linderalactone]
